Experiment [1] addresses Human immunodeficiency virus type 1 protease (Human immunodeficiency virus 1, UniProt Q72874). In words: Compound was tested for 50% irreversible inhibition of HIV-1 protease; value ranges from 10-50.
Experiment [2] has as its target Human immunodeficiency virus type 1 protease (Human immunodeficiency virus 1) (UniProt Q72874). In words: Second order rate constant was determined for the irreversible inhibition of HIV-1 protease; value ranges from 10e8- 10e10.

In turn, `CC(C)[C@H](Cc1ccccc1)NC(=O)C[C@@H]1O[C@@H]1[C@H](Cc1ccccc1)NC(=O)[C@H](CC(N)=O)NC(=O)c1ccc2ccccc2n1` yielded a concentration for half-maximal inhibition (IC50) in experiment [1] of 0.01 µM. In addition, in experiment [2], the K inact/Ki is 1.67e+06 M⁻¹ s⁻¹.
The molecule `CONC(=O)[C@H](NC(=O)C[C@@H]1O[C@@H]1[C@H](Cc1ccccc1)NC(=O)[C@H](CC(N)=O)NC(=O)c1ccc2ccccc2n1)C(C)C` showed a half-inhibitory concentration (IC50) in experiment [1] of 0.01 µM. For the same molecule, the K inact/Ki in experiment [2] was 1.67e+06 M⁻¹ s⁻¹.
The matching figures for `CC(C)[C@@H](NC(=O)C[C@@H]1O[C@@H]1[C@H](Cc1ccccc1)NC(=O)[C@H](CC(N)=O)NC(=O)c1ccc2ccccc2n1)c1ccccc1`: 0.01 µM and 1.67e+06 M⁻¹ s⁻¹.

For the origin of these results see ChEMBL document CHEMBL1130952, “NMR and topochemical studies of peptidomimetic HIV-I protease inhibitors containing a cis-epoxide amide isostere” (Bioorg Med Chem Lett, 1998).
